One assay concerns cyclin D1. In words: Cyclin D1 percentage degradation in Calu-1 cells (immunoblotting). The assay is classed as cell-based. Conditions: 200 nM, 16 hours. In outline: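 Cyclin D1 degradation was assessed by western blot. Clarified lysates, obtained by RIPA lysis with inhibitors and centrifugation at 13,000 rpm, were normalized by BCA protein assay and separated by SDS-PAGE. Bands were detected with Western ECL Substrate on a Bio-Rad ChemiDoc MP Imaging system and quantified in Image Lab software to derive percentage degradation.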
(Immunoblotting shows a protein as a band on a membrane.)

For a further assay, the target named is T1, CDK4 (Homo sapiens, UniProt P11802).
T1 construct: endogenous in cells; host or cells: Calu-1
T1 sequence (P11802 2-303 limits assumed): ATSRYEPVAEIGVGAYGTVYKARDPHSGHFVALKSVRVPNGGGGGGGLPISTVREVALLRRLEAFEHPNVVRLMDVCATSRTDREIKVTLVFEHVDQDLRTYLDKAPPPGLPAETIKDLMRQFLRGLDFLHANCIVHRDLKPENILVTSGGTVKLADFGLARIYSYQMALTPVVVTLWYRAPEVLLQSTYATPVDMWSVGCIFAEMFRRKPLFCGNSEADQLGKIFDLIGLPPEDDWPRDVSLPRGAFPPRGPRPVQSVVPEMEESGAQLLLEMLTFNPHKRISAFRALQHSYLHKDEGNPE
T1 sequence (P24385 whole entry partner): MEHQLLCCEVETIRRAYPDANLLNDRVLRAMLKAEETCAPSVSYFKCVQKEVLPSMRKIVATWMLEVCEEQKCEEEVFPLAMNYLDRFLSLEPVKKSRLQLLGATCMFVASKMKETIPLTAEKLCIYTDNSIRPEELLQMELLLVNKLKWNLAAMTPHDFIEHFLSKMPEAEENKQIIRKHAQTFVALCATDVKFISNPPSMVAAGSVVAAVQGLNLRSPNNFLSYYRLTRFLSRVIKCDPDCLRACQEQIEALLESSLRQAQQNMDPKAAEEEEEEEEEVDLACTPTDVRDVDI
T1 sequence (Q16531 2-1140 limits assumed, further chain): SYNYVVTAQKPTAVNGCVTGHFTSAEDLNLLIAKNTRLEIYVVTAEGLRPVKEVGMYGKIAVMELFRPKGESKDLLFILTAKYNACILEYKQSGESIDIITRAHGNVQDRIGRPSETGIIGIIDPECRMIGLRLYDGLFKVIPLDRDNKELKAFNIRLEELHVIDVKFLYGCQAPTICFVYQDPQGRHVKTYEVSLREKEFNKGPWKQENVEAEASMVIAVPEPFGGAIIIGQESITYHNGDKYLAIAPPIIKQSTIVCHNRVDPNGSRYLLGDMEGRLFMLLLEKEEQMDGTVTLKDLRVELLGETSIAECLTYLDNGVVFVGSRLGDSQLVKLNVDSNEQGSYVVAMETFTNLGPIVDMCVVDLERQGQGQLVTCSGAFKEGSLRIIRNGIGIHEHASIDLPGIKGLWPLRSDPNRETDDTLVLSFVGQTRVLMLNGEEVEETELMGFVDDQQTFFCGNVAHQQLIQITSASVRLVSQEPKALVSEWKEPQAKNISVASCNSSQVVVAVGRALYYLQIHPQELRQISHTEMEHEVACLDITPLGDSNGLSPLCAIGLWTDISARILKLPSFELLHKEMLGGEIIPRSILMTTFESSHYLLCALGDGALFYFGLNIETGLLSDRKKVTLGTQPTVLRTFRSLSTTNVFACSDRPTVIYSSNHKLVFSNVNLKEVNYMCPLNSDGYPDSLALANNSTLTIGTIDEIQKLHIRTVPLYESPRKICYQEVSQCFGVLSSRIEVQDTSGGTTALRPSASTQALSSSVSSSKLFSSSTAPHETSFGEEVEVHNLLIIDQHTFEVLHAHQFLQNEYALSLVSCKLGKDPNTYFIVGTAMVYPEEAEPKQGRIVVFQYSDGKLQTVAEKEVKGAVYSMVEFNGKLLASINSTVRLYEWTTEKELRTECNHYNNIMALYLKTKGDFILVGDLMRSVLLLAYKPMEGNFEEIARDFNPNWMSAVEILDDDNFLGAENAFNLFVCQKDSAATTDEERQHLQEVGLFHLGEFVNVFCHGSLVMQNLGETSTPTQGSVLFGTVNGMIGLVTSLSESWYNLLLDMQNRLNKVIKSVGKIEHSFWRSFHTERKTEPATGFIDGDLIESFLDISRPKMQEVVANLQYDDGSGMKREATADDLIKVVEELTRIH
The assay is described as follows: CDK4 percentage degradation in Calu-1 cells (immunoblotting). The assay is classed as cell-based. The following applies: read-out: CDK4 Degradation (200 nM). In outline:
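CDK4 degradation was measured by immunoblotting. Cells were washed in cold PBS and lysed in RIPA buffer with inhibitors for 30 min at 4° C., then spun at 13,000 rpm to clear. After BCA protein determination, lysates were heated at 99° C. for 5 min in Laemmli buffer, resolved on SDS-PAGE, imaged on a ChemiDoc MP with ECL substrate, and band intensities quantified.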

SMILES strings stand for the structures. Read-outs that look alike come from different tables or passages of the source.

We go through 12 compounds from patent publication US20250235543A1, “MODIFIED PROTEINS AND PROTEIN DEGRADERS” (Cullgen (Shanghai), Inc., priority 2021, published 2025).

For the compound `CC(=O)c1c(C)c2cnc(Nc3ccc(N4CCN(CC(=O)NCCOCCOCCOCCOCCNc5cccc(C(=O)Nc6nc(C)c(C)s6)c5C)CC4)cn3)nc2n(C2CCCC2)c1=O` [CPD-106, 3-((1-(4-(6-((6-Acetyl-8-cyclopentyl-5-methyl-7-oxo-7,8-dihydropyrido[2,3-d]pyrimidin-2-yl)amino)pyridin-3-yl)piperazin-1-yl)-2-oxo-6,9,12,15-tetraoxa-3-azaheptadecan-17-yl)amino)-N-(4,5-dimethylthiazol-2-yl)-2-methylbenzamide], in the assay with cyclin D1, the “CyclinD1 Degradation (200 nM)” value is “A (protein percentage degradation >=80%)”. Moreover, the inhibition at 0.2 µM on CDK4 (Calu-1 cells, 200 nM, 16 hours) was 50 to 80%.

Turning to `CC(=O)c1c(C)c2cnc(Nc3ccc(N4CCN(CC(=O)NCCOCCOCCOCCOCCOCCNc5cccc(C(=O)Nc6nc(C)c(C)s6)c5C)CC4)cn3)nc2n(C2CCCC2)c1=O` [CPD-107, 3-((1-(4-(6-((6-Acetyl-8-cyclopentyl-5-methyl-7-oxo-7,8-dihydropyrido[2,3-d]pyrimidin-2-yl)amino)pyridin-3-yl)piperazin-1-yl)-2-oxo-6,9,12,15,18-pentaoxa-3-azaicosan-20-yl)amino)-N-(4,5-dimethylthiazol-2-yl)-2-methylbenzamide], the “CyclinD1 Degradation (200 nM)” value in the assay on cyclin D1 was “A (protein percentage degradation >=80%)”. The inhibition at 0.2 µM on CDK4 (Calu-1 cells, 200 nM, 16 hours) was over 80%.

Turning to `CC(=O)c1c(C)c2cnc(Nc3ccc(N4CCN(C(=O)CCCCNc5ccc(C)c(C(=O)Nc6nc(C)c(C)s6)c5)CC4)cn3)nc2n(C2CCCC2)c1=O` [CPD-108, 5-((5-(4-(6-((6-Acetyl-8-cyclopentyl-5-methyl-7-oxo-7,8-dihydropyrido[2,3-d]pyrimidin-2-yl)amino)pyridin-3-yl)piperazin-1-yl)-5-oxopentyl)amino)-N-(4,5-dimethylthiazol-2-yl)-2-methylbenzamide], the “CyclinD1 Degradation (200 nM)” value in the assay with cyclin D1 is on record as “D (protein percentage degradation <30%)”. At CDK4 (Calu-1, 16 h), the inhibition at 0.2 µM is under 30%.

On to `CC(=O)c1c(C)c2cnc(Nc3ccc(N4CCN(C(=O)CCCCCCNc5ccc(C)c(C(=O)Nc6nc(C)c(C)s6)c5)CC4)cn3)nc2n(C2CCCC2)c1=O` [CPD-109, 5-((7-(4-(6-((6-Acetyl-8-cyclopentyl-5-methyl-7-oxo-7,8-dihydropyrido[2,3-d]pyrimidin-2-yl)amino)pyridin-3-yl)piperazin-1-yl)-7-oxoheptyl)amino)-N-(4,5-dimethylthiazol-2-yl)-2-methylbenzamide], for which the “CyclinD1 Degradation (200 nM)” value in the assay on cyclin D1 is “D (protein percentage degradation <30%)”. Moreover, the inhibition at 0.2 µM at CDK4 (Calu-1 cells, 200 nM, 16 hours) is under 30%.

For the compound `CC(=O)c1c(C)c2cnc(Nc3ccc(N4CCN(C(=O)CCOCCNc5ccc(C)c(C(=O)Nc6nc(C)c(C)s6)c5)CC4)cn3)nc2n(C2CCCC2)c1=O` [CPD-110, 5-((2-(3-(4-(6-((6-Acetyl-8-cyclopentyl-5-methyl-7-oxo-7,8-dihydropyrido[2,3-d]pyrimidin-2-yl)amino)pyridin-3-yl)piperazin-1-yl)-3-oxopropoxy)ethyl)amino)-N-(4,5-dimethylthiazol-2-yl)-2-methylbenzamide], the “CyclinD1 Degradation (200 nM)” value in the assay with cyclin D1 is “D (protein percentage degradation <30%)”. Also, on CDK4 (Calu-1, 16 h), the inhibition at 0.2 µM was under 30%.

With `CC(=O)c1c(C)c2cnc(Nc3ccc(N4CCN(C(=O)CCOCCOCCOCCNc5ccc(C)c(C(=O)Nc6nc(C)c(C)s6)c5)CC4)cn3)nc2n(C2CCCC2)c1=O` [CPD-111, 5-((2-(2-(2-(3-(4-(6-((6-Acetyl-8-cyclopentyl-5-methyl-7-oxo-7,8-dihydropyrido[2,3-d]pyrimidin-2-yl)amino)pyridin-3-yl)piperazin-1-yl)-3-oxopropoxy)ethoxy)ethoxy)ethyl)amino)-N-(4,5-dimethylthiazol-2-yl)-2-methylbenzamide], the “CyclinD1 Degradation (200 nM)” value in the assay with cyclin D1 is “D (protein percentage degradation <30%)”. For the same compound, the inhibition at 0.2 µM at CDK4 (Calu-1, 16 h) is under 30%.

As for `CC(=O)c1c(C)c2cnc(Nc3ccc(N4CCN(C(=O)CCNc5cccc(C(=O)Nc6nc(C)c(C)s6)c5C)CC4)cn3)nc2n(C2CCCC2)c1=O` [CPD-112, 3-((3-(4-(6-((6-Acetyl-8-cyclopentyl-5-methyl-7-oxo-7,8-dihydropyrido[2,3-d]pyrimidin-2-yl)amino)pyridin-3-yl)piperazin-1-yl)-3-oxopropyl)amino)-N-(4,5-dimethylthiazol-2-yl)-2-methylbenzamide], the “CyclinD1 Degradation (200 nM)” value in the assay on cyclin D1 is “D (protein percentage degradation <30%)”. Further, at CDK4 (Calu-1, 16 h), the inhibition at 0.2 µM was under 30%.

`CC(=O)c1c(C)c2cnc(Nc3ccc(N4CCN(CC(=O)NCCCCCCCCC(=O)Nc5ccccc5C(=O)Nc5nc(C)c(C)s5)CC4)cn3)nc2n(C2CCCC2)c1=O` [CPD-113, 2-(9-(2-(4-(6-((6-Acetyl-8-cyclopentyl-5-methyl-7-oxo-7,8-dihydropyrido[2,3-d]pyrimidin-2-yl)amino)pyridin-3-yl)piperazin-1-yl)acetamido)nonanamido)-N-(4,5-dimethylthiazol-2-yl)benzamide]: the “CyclinD1 Degradation (200 nM)” value in the assay on cyclin D1 is listed as “A (protein percentage degradation >=80%)”. The inhibition at 0.2 µM on CDK4 (Calu-1 cells, 200 nM, 16 hours) is 50 to 80%.

As for `CC(=O)c1c(C)c2cnc(Nc3ccc(N4CCN(CC(=O)NCCCCCNc5ccc(C)c(C(=O)Nc6nc(C)c(C)s6)c5)CC4)cn3)nc2n(C2CCCC2)c1=O` [CPD-116, 5-((5-(2-(4-(6-((6-Acetyl-8-cyclopentyl-5-methyl-7-oxo-7,8-dihydropyrido[2,3-d]pyrimidin-2-yl)amino)pyridin-3-yl)piperazin-1-yl)acetamido)pentyl)amino)-N-(4,5-dimethylthiazol-2-yl)-2-methylbenzamide], the “CyclinD1 Degradation (200 nM)” value in the assay with cyclin D1 is “D (protein percentage degradation <30%)”. Besides, the inhibition at 0.2 µM at CDK4 (Calu-1 cells, 200 nM, 16 hours) was under 30%.

On to `CC(=O)c1c(C)c2cnc(Nc3ccc(N4CCN(CC(=O)NCCCCCCCNc5ccc(C)c(C(=O)Nc6nc(C)c(C)s6)c5)CC4)cn3)nc2n(C2CCCC2)c1=O` [CPD-117, 5-((7-(2-(4-(6-((6-Acetyl-8-cyclopentyl-5-methyl-7-oxo-7,8-dihydropyrido[2,3-d]pyrimidin-2-yl)amino)pyridin-3-yl)piperazin-1-yl)acetamido)heptyl)amino)-N-(4,5-dimethylthiazol-2-yl)-2-methylbenzamide], for which, in the assay with cyclin D1, the “CyclinD1 Degradation (200 nM)” value was “C (protein percentage degradation <50%, and >=30%)”. Also, the inhibition at 0.2 µM on CDK4 (Calu-1 cells, 200 nM, 16 hours) is 30 to 50%.

For `CC(=O)c1c(C)c2cnc(Nc3ccc(N4CCN(CC(=O)NCCOCCOCCOCCOCCNc5ccc(C)c(C(=O)Nc6nc(C)c(C)s6)c5)CC4)cn3)nc2n(C2CCCC2)c1=O` [CPD-118, 5-((1-(4-(6-((6-Acetyl-8-cyclopentyl-5-methyl-7-oxo-7,8-dihydropyrido[2,3-d]pyrimidin-2-yl)amino)pyridin-3-yl)piperazin-1-yl)-2-oxo-6,9,12,15-tetraoxa-3-azaheptadecan-17-yl)amino)-N-(4,5-dimethylthiazol-2-yl)-2-methylbenzamide], in the assay with cyclin D1, the “CyclinD1 Degradation (200 nM)” value was “D (protein percentage degradation <30%)”. Also, the inhibition at 0.2 µM at CDK4 (Calu-1 cells, 200 nM, 16 hours) is under 30%.

Take `CC(=O)c1c(C)c2cnc(Nc3ccc(N4CCN(C(=O)CCOCCNc5cccc(C(=O)Nc6nc(C)c(C)s6)c5C)CC4)cn3)nc2n(C2CCCC2)c1=O` [CPD-120, 3-((2-(3-(4-(6-((6-Acetyl-8-cyclopentyl-5-methyl-7-oxo-7,8-dihydropyrido[2,3-d]pyrimidin-2-yl)amino)pyridin-3-yl)piperazin-1-yl)-3-oxopropoxy)ethyl)amino)-N-(4,5-dimethylthiazol-2-yl)-2-methylbenzamide]: the “CyclinD1 Degradation (200 nM)” value in the assay with cyclin D1 was “D (protein percentage degradation <30%)”. Also, the inhibition at 0.2 µM at CDK4 (Calu-1, 16 h) is under 30%.
